# Measured values taken from US8293781B2, “Indole derivatives having cPLA2 inhibiting activity and applications and production methods of the same” (Daiichi Sankyo Company, Limited, priority 2007, dated 2012).
# Counter-ions that a name gives are not always drawn.
# Target: T1, cPLA2 crudely purified from the cytoplasm fraction of U937 (Homo sapiens, UniProt P47712)
# T1 construct: cPLA2 crudely purified from the cytoplasm fraction of U937; endogenous in cells; host or cells: U937 cells (cytoplasm fraction, crude purification)
# T1 sequence (P47712 1-749): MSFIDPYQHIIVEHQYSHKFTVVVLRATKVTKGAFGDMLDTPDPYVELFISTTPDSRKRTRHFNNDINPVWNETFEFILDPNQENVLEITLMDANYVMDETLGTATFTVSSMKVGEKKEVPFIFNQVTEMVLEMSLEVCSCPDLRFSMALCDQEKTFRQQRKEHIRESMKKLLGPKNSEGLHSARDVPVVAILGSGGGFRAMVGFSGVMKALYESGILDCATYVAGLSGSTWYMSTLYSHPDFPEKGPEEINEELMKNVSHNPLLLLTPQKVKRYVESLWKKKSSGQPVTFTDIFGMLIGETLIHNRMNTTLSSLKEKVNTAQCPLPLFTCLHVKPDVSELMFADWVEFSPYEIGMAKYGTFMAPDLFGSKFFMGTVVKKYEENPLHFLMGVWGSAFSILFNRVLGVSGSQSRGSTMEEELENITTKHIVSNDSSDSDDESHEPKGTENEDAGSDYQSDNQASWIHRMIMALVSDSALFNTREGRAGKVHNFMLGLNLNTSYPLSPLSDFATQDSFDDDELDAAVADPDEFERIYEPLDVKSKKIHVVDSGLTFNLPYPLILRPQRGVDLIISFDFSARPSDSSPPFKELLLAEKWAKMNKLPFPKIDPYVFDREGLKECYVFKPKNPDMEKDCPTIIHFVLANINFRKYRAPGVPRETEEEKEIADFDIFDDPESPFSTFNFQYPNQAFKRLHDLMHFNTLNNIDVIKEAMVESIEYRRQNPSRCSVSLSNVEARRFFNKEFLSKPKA
# Assay: Measurement of cPLA2 inhibitory activity (release of [14C]-arachidonic acid from phosphatidyl choline liposome)
# Assay type: biochemical
# Settings: not given
# Procedure: The cPLA2 inhibitory activity was measured based on the method described in the document [See H. Naraba et al., J. Immunol. 160, 2974-2982 (1998)] and modified in the following way.
# A DMSO solution of the present invitation compounds was diluted to 2.5 times the final concentration with the assay buffer (4 mM CaCl2, 2 mM dithiothreitol, 150 mM NaCl, 50 mM HEPES buffer solution (pH7.5)) containing 0.55 mg/ml BSA. To 20 μl of this, cPLA2 crudely purified from the cytoplasm fraction of U937 was added in an amount of 10 μl after dilution by an assay buffer solution containing 0.55 mg/ml BSA. A liposome prepared by ultrasonically treating L-α-1-palmitoyl-2-[14C]arachidonyl-phosphatidyl choline (made by PerkinElmer) and adjusted by the assay buffer solution to a concentration of phosphatidyl choline of 10 μM was added and stirred in by an amount of 20 μl and the mixture was reacted at 37° C. for 60 minutes. The [^14C]-arachidonic acid released due to the reaction was extracted based on the method described in the documents [see V. P. Dole et al., J. Biol. Chem. 235, 2595 (1960)], was added to Lumaplate® (made by PerkinElmer), dried, then measured by Topcount® (made by PerkinElmer). Except for not adding the present invention compounds, the same procedure was performed as the above to obtain the enzyme control. Except for not adding the invention compounds and not adding the enzyme, the same procedure was followed as above to obtain a negative control. The inhibiting activity was expressed as a percent (%) of the value minus the negative control with respect to the value of the enzyme control minus the negative control. From this, the 50% inhibiting concentration (IC50, μM) was calculated.
row,SMILES,IC50 [nM]
1,"O=C(O)/C=C/c1ccc2c(c1)c(C(=O)Cc1ccc(F)cc1)cn2-c1ccccc1 [Example 60, (2E)-3-{3-[(4-fluorophenyl)acetyl]-1-phenyl-1H-indol-5-yl}-2-propenoic acid]",5720
2,"O=C(O)CCc1ccc2c(c1)c(C(=O)Cc1ccc(F)cc1)cn2-c1ccccc1 [Example 61, 3-{3-[(4-fluorophenyl)acetyl]-1-phenyl-1H-indol-5-yl}propanoic acid]",653
3,"COc1ccc(CC(=O)c2cn(-c3ccccc3)c3ccc(/C=C/C(=O)O)cc23)cc1 [Example 64, (2E)-3-{3-[(4-methoxyphenyl)acetyl]-1-phenyl-1H-indol-5-yl}-2-propenoic acid]",19600
4,"COc1ccc(CC(=O)c2cn(-c3ccccc3)c3ccc(CCC(=O)O)cc23)cc1 [Example 65, 3-{3-[(4-methoxyphenyl)acetyl]-1-phenyl-1H-indol-5-yl}propanoic acid]",1910

# Same assay, conditions: cPLA2 from U937 cytoplasm fraction, [14C]arachidonyl-phosphatidyl choline liposome, 37° C., 60 minutes; read-out: cPLA2 inhibitory activity, 50% inhibiting concentration IC50
row,SMILES,IC50 [nM]
1,"O=C(O)CCc1ccc2c(c1)c(CCc1ccc(Cl)cc1)cn2-c1ccccc1 [Example 58, 3-{3-[2-(4-chlorophenyl)ethyl]-1-phenyl-1H-indol-5-yl}propanoic acid 2-amino-2-(hydroxymethyl)propane-1,3-diol salt (1:1)]",1160
2,"O=C(O)CCc1ccc2c(c1)c(CCc1ccc(F)cc1)cn2-c1ccccc1 [Example 62, 3-{3-[2-(4-fluorophenyl)ethyl]-1-phenyl-1H-indol-5-yl}propanoic acid 2-amino-2-(hydroxymethyl)propane-1,3-diol salt (1:1)]",565
3,"COc1ccc(CCc2cn(-c3ccccc3)c3ccc(CCC(=O)O)cc23)cc1 [Example 66, 3-{3-[2-(4-methoxyphenyl)ethyl]-1-phenyl-1H-indol-5-yl}propanoic acid 2-amino-2-(hydroxymethyl)propane-1,3-diol salt (1:1)]",718
4,"COc1cccc(CCc2cn(-c3ccccc3)c3ccc(CCC(=O)O)cc23)c1 [Example 68, 3-{3-[2-(3-methoxyphenyl)ethyl]-1-phenyl-1H-indol-5-yl}propanoic acid 2-amino-2-(hydroxymethyl)propane-1,3-diol salt (1:1)]",1000
5,"COc1ccc(CCc2cn(-c3ccccc3)c3ccc(CCC(=O)O)cc23)cc1OC [Example 70, 3-{3-[2-(3,4-dimethoxyphenyl)ethyl]-1-phenyl-1H-indol-5-yl}propanoic acid 2-amino-2-(hydroxymethyl)propane-1,3-diol salt (1:1)]",1360
6,"COc1ccc(-n2cc(CCc3ccccc3)c3cc(/C=C/C(=O)O)ccc32)cc1 [Example 74, (2E)-3-[1-(4-methoxyphenyl)-3-(2-phenylethyl)-1H-indol-5-yl]-2-propenoic acid]",157
7,"COc1ccc(-n2cc(CCc3ccccc3)c3cc(CCC(=O)O)ccc32)cc1 [Example 77, 3-[1-(4-methoxyphenyl)-3-(2-phenylethyl)-1H-indol-5-yl]propanoic acid 2-amino-2-(hydroxymethyl)propane-1,3-diol salt (1:1)]",26
8,"O=C(O)CCc1ccc2c(c1)c(CCc1ccccc1)cn2-c1ccc(C(=O)O)cc1 [Example 79, 4-[5-(2-carboxyethyl)-3-(2-phenylethyl)-1H-indol-1-yl]benzoic acid]",180
9,"N#Cc1ccc(-n2cc(CCc3ccccc3)c3cc(CCC(=O)O)ccc32)cc1 [Example 81, 3-[1-(4-cyanophenyl)-3-(2-phenylethyl)-1H-indol-5-yl]propanoic acid]",58
10,"O=C(O)CCc1ccc2c(c1)c(CCc1ccccc1)cn2-c1ccc([N+](=O)[O-])cc1 [Example 83, 3-[1-(4-nitrophenyl)-3-(2-phenylethyl)-1H-indol-5-yl]propanoic acid]",101
11,"CN(C)c1ccc(-n2cc(CCc3ccccc3)c3cc(CCC(=O)O)ccc32)cc1 [Example 85, 3-{1-[4-(dimethylamino)phenyl]-3-(2-phenylethyl)-1H-indol-5-yl}propanoic acid]",77
12,"CN(C)c1ccc(-n2cc(CCc3ccccc3)c3cc(CCC(=O)O)ccc32)cc1 [Example 86, 3-{1-[4-(dimethylamino)phenyl]-3-(2-phenylethyl)-1H-indol-5-yl}propanoic acid 2-amino-2-(hydroxymethyl)propane-1,3-diol salt (1:1)]",24
13,"CCN(CC)c1ccc(-n2cc(CCc3ccccc3)c3cc(CCC(=O)O)ccc32)cc1 [Example 88, 3-{1-[4-(diethylamino)phenyl]-3-(2-phenylethyl)-1H-indol-5-yl}propanoic acid]",142
14,"CC(=O)Nc1ccc(-n2cc(CCc3ccccc3)c3cc(CCC(=O)O)ccc32)cc1 [Example 91, 3-{1-[4-(acetylamino)phenyl]-3-(2-phenylethyl)-1H-indol-5-yl}propanoic acid 2-amino-2-(hydroxymethyl)propane-1,3-diol salt (1:1)]",207
15,"CC(C)(C)C(=O)Nc1ccc(-n2cc(CCc3ccccc3)c3cc(CCC(=O)O)ccc32)cc1 [Example 93, 3-[1-{4-[(2,2-dimethylpropanoyl)amino]phenyl}-3-(2-phenylethyl)-1H-indol-5-yl]propanoic acid 2-amino-2-(hydroxymethyl)propane-1,3-diol salt (1:1)]",112
16,"Cc1ccc(-n2cc(CCc3ccccc3)c3cc(CCC(=O)O)ccc32)cc1 [Example 95, 3-[1-(4-methylphenyl)-3-(2-phenylethyl)-1H-indol-5-yl]propanoic acid 2-amino-2-(hydroxymethyl)propane-1,3-diol salt (1:1)]",77
17,"Cc1cccc(-n2cc(CCc3ccccc3)c3cc(CCC(=O)O)ccc32)c1 [Example 97, 3-[1-(3-methylphenyl)-3-(2-phenylethyl)-1H-indol-5-yl]propanoic acid 2-amino-2-(hydroxymethyl)propane-1,3-diol salt (1:1)]",99
18,"Cc1ccccc1-n1cc(CCc2ccccc2)c2cc(CCC(=O)O)ccc21 [Example 99, 3-[1-(2-methylphenyl)-3-(2-phenylethyl)-1H-indol-5-yl]propanoic acid 2-amino-2-(hydroxymethyl)propane-1,3-diol salt (1:1)]",288
19,"Cc1ccc(-n2cc(CCc3ccccc3)c3cc(CCC(=O)O)ccc32)cc1C [Example 101, 3-[1-(3,4-dimethylphenyl)-3-(2-phenylethyl)-1H-indol-5-yl]propanoic acid 2-amino-2-(hydroxymethyl)propane-1,3-diol salt (1:1)]",96
20,"CC(C)(C)c1ccc(-n2cc(CCc3ccccc3)c3cc(CCC(=O)O)ccc32)cc1 [Example 103, 3-[1-(4-tert-butylphenyl)-3-(2-phenylethyl)-1H-indol-5-yl]propanoic acid 2-amino-2-(hydroxymethyl)propane-1,3-diol salt (1:1)]",419
21,"O=C(O)CCc1ccc2c(c1)c(CCc1ccccc1)cn2-c1ccc(Cl)cc1 [Example 105, 3-[1-(4-chlorophenyl)-3-(2-phenylethyl)-1H-indol-5-yl]propanoic acid 2-amino-2-(hydroxymethyl)propane-1,3-diol salt (1:1)]",36
22,"COc1cccc(-n2cc(CCc3ccccc3)c3cc(CCC(=O)O)ccc32)c1 [Example 107, 3-[1-(3-methoxyphenyl)-3-(2-phenylethyl)-1H-indol-5-yl]propanoic acid 2-amino-2-(hydroxymethyl)propane-1,3-diol salt (1:1)]",195
23,"COc1ccccc1-n1cc(CCc2ccccc2)c2cc(CCC(=O)O)ccc21 [Example 109, 3-[1-(2-methoxyphenyl)-3-(2-phenylethyl)-1H-indol-5-yl]propanoic acid 2-amino-2-(hydroxymethyl)propane-1,3-diol salt (1:1)]",224
